Marks after values point to notes of the source that are not given here.
Legend:
patients with MF [1] = assay: Phase 2 MF Quality of Life and Symptoms Assessment Tool; type: in vivo, human; conditions: phase 2, 400 mg QD
Protocol: In phase 2, abdominal MRI to assess spleen and liver volume was performed on day 1 of cycles 1, 4, and 7 and then day 1 of every third cycle through cycle 25. Spleen size (length) was also assessed by manual palpation with each scheduled physical examination. The phase 2 study protocol was amended in September 2009 to include the MF Quality of Life and Symptoms Assessment Tool. […] The instrument was administered pre-dose on day 1 of cycles 1, 2, 4, 7, and 10 and then on day 1 of every third cycle through cycle 25.
The primary endpoint of the phase 2 component was the proportion of the efficacy population who achieved a ≥35% reduction in spleen volume from baseline at week 24, as measured by MRI. Spleen response rate was also assessed in terms of a ≥35% reduction in spleen volume by MRI up to week 24 and end of treatment and as a ≥50% reduction in spleen length by physical examination up to week 24 and end of treatment. Duration of response was not analyzed due to limitations in the proportion of responders. An exploratory endpoint was the proportion of patients with a ≥50% reduction in MF Quality of Life and Symptoms Assessment Tool at week 24 compared with baseline.

patients with MF [2] = assay: Phase 2 hematologic parameters and transfusions; type: in vivo, human
Protocol: At screening/baseline, patients underwent a medical history, physical examination, vital sign assessment, ECOG PS assessment, electrocardiogram, and assessment of hematologic parameters and blood chemistry. Hematology/blood chemistry, physical examinations, and vital sign assessments were performed throughout treatment. Toxicity was assessed using the National Cancer Institute Common Terminology Criteria for Adverse Events (NCIC-CTCAE), version 3.0, with relationship to treatment assigned by the investigator and were recorded from the first dose of pacritinib until 30 days after the last dose. Bone marrow biopsy and/or aspirate samples were drawn at baseline, on day 1 of cycle 4 and cycle 10, as clinically indicated, and at the termination visit. Disease response and progression were determined using the relevant International Working Group (IWG) criteria.

[3] = phase 2, during the study, n = 31

Compound: C1=C/COCc2cc(ccc2OCCN2CCCC2)Nc2nccc(n2)-c2cccc(c2)COC/1 [pacritinib, 11-(2-pyrrolidin-1-yl-ethoxy)-14,19-dioxa-5,7,26-triaza-tetracyclo[19.3.1.1(2,6). 1(8,12)]heptacosa-1(25),2(26),3,5,8,10,12(27),16,21,23-decaene]
- Individual symptoms and overall quality of life score (patients with MF [1]): Improvement was seen in each of the individual symptoms
- Bone pain, Mean percent change from baseline at Week 24 (SD) (patients with MF [1]; N = 11): -51.6 (43.04) %
- Night sweats, Mean percent change from baseline at Week 24 (SD) (patients with MF [1]; N = 11): -31.3 (85.45) %
- Itching (pruritus), Mean percent change from baseline at Week 24 (SD) (patients with MF [1]; N = 12): -62.6 (45.35) %
- Abdominal pain, Mean percent change from baseline at Week 24 (SD) (patients with MF [1]; N = 16): -54.2 (58.14) %
- Overall quality of life, Mean percent change from baseline at Week 24 (SD) (patients with MF [1]; N = 16): -38.1 (49.50) %
- Early satiety, Mean percent change from baseline at Week 24 (SD) (patients with MF [1]; N = 17): -42.2 (37.53) %
- Fatigue – worst, Mean percent change from baseline at Week 24 (SD) (patients with MF [1]; N = 18): -12.5 (63.55) %
- Total symptom score, Mean percent change from baseline at Week 24 (SD) (patients with MF [1]; N = 18): -27.5 (39.01) %
- Evaluable patients with ≥50% reduction in MF Quality of Life and Symptom Assessment total score (patients with MF [1]; week 24 (7/18)): 38.9%
- RBC transfusions, median (patients with MF [2]; phase 2, 16 transfused patients): 11 units
- Hematocrit, Median % change from baseline (patients with MF [2]; phase 2, Termination): 0.48%
- Hemoglobin, Median % change from baseline (patients with MF [2]; phase 2, Termination): 5.0%
- Leukocytes, Median % change from baseline (patients with MF [2]; phase 2, Termination): 15.49%
- Lymphocytes, Median % change from baseline (patients with MF [2]; phase 2, Termination): 39.87%
- Neutrophils, Median % change from baseline (patients with MF [2]; phase 2, Termination): -9.19%
- Platelets, Median % change from baseline (patients with MF [2]; phase 2, Termination): -5.4%
- Red blood cells, Median % change from baseline (patients with MF [2]; phase 2, Termination): 0.18%
- Hematocrit, Median % change from baseline (patients with MF [2]; phase 2, Week 2): 2.92%
- Hemoglobin, Median % change from baseline (patients with MF [2]; phase 2, Week 2): 5.3%
- Leukocytes, Median % change from baseline (patients with MF [2]; phase 2, Week 2): -5.93%
- Lymphocytes, Median % change from baseline (patients with MF [2]; phase 2, Week 2): 26.93%
- Neutrophils, Median % change from baseline (patients with MF [2]; phase 2, Week 2): -16.44%
- Platelets, Median % change from baseline (patients with MF [2]; phase 2, Week 2): -1.6%
- Red blood cells, Median % change from baseline (patients with MF [2]; phase 2, Week 2): 2.23%
- Hematocrit, Median % change from baseline (patients with MF [2]; phase 2, Week 4): 0.00%
- Hemoglobin, Median % change from baseline (patients with MF [2]; phase 2, Week 4): 2.2%
- Leukocytes, Median % change from baseline (patients with MF [2]; phase 2, Week 4): -26.77%
- Lymphocytes, Median % change from baseline (patients with MF [2]; phase 2, Week 4): -6.84%
- Neutrophils, Median % change from baseline (patients with MF [2]; phase 2, Week 4): -26.43%
- Platelets, Median % change from baseline (patients with MF [2]; phase 2, Week 4): -20.3%
- Red blood cells, Median % change from baseline (patients with MF [2]; phase 2, Week 4): 1.41%
- Hematocrit, Median % change from baseline (patients with MF [2]; phase 2, Week 6): 0.64%
- Hemoglobin, Median % change from baseline (patients with MF [2]; phase 2, Week 6): 9.1%
- Leukocytes, Median % change from baseline (patients with MF [2]; phase 2, Week 6): -5.58%
- Lymphocytes, Median % change from baseline (patients with MF [2]; phase 2, Week 6): 31.7%
- Neutrophils, Median % change from baseline (patients with MF [2]; phase 2, Week 6): -9.32%
- Platelets, Median % change from baseline (patients with MF [2]; phase 2, Week 6): -3.6%
- Red blood cells, Median % change from baseline (patients with MF [2]; phase 2, Week 6): -1.65%
- Hematocrit, Median % change from baseline (patients with MF [2]; phase 2, Week 8): 2.01%
- Hemoglobin, Median % change from baseline (patients with MF [2]; phase 2, Week 8): 4.5%
- Leukocytes, Median % change from baseline (patients with MF [2]; phase 2, Week 8): -5.50%
- Lymphocytes, Median % change from baseline (patients with MF [2]; phase 2, Week 8): 12.65%
- Neutrophils, Median % change from baseline (patients with MF [2]; phase 2, Week 8): -19.76%
- Platelets, Median % change from baseline (patients with MF [2]; phase 2, Week 8): -4.5%
- Red blood cells, Median % change from baseline (patients with MF [2]; phase 2, Week 8): 2.14%
- Hematocrit, Median % change from baseline (patients with MF [2]; phase 2, Week 10): -3.57%
- Hemoglobin, Median % change from baseline (patients with MF [2]; phase 2, Week 10): 8.2%
- Leukocytes, Median % change from baseline (patients with MF [2]; phase 2, Week 10): 7.90%
- Lymphocytes, Median % change from baseline (patients with MF [2]; phase 2, Week 10): 52.34%
- Platelets, Median % change from baseline (patients with MF [2]; phase 2, Week 10): -3.1%
- Red blood cells, Median % change from baseline (patients with MF [2]; phase 2, Week 10): -1.37%
- Neutrophils, Median % change from baseline (patients with MF [2]; phase 2, Week 10, n = 19): -1.44^b %
- Hematocrit, Median % change from baseline (patients with MF [2]; phase 2, Week 12): -3.31%
- Hemoglobin, Median % change from baseline (patients with MF [2]; phase 2, Week 12): -0.5%
- Leukocytes, Median % change from baseline (patients with MF [2]; phase 2, Week 12): -21.83%
- Lymphocytes, Median % change from baseline (patients with MF [2]; phase 2, Week 12): 20.88%
- Neutrophils, Median % change from baseline (patients with MF [2]; phase 2, Week 12): -31.39%
- Platelets, Median % change from baseline (patients with MF [2]; phase 2, Week 12): -7.7%
- Red blood cells, Median % change from baseline (patients with MF [2]; phase 2, Week 12): -1.81%
- Hematocrit, Median % change from baseline (patients with MF [2]; phase 2, Week 16): 3.11%
- Hemoglobin, Median % change from baseline (patients with MF [2]; phase 2, Week 16): 8.6%
- Leukocytes, Median % change from baseline (patients with MF [2]; phase 2, Week 16): -15.09%
- Lymphocytes, Median % change from baseline (patients with MF [2]; phase 2, Week 16): 22.22%
- Neutrophils, Median % change from baseline (patients with MF [2]; phase 2, Week 16): -33.04%
- Platelets, Median % change from baseline (patients with MF [2]; phase 2, Week 16): -20.1%
- Red blood cells, Median % change from baseline (patients with MF [2]; phase 2, Week 16): 6.16%
- Hematocrit, Median % change from baseline (patients with MF [2]; phase 2, Week 20): -1.30%
- Hemoglobin, Median % change from baseline (patients with MF [2]; phase 2, Week 20): 5.8%
- Leukocytes, Median % change from baseline (patients with MF [2]; phase 2, Week 20): -25.83%
- Lymphocytes, Median % change from baseline (patients with MF [2]; phase 2, Week 20): 37.07%
- Neutrophils, Median % change from baseline (patients with MF [2]; phase 2, Week 20): -32.93%
- Platelets, Median % change from baseline (patients with MF [2]; phase 2, Week 20): -11.7%
- Red blood cells, Median % change from baseline (patients with MF [2]; phase 2, Week 20): -0.30%
- Hematocrit, Median % change from baseline (patients with MF [2]; phase 2, Week 24): 3.01%
- Hemoglobin, Median % change from baseline (patients with MF [2]; phase 2, Week 24): 7.3%
- Leukocytes, Median % change from baseline (patients with MF [2]; phase 2, Week 24): -30.34%
- Lymphocytes, Median % change from baseline (patients with MF [2]; phase 2, Week 24): 44.14%
- Neutrophils, Median % change from baseline (patients with MF [2]; phase 2, Week 24): -43.24%
- Platelets, Median % change from baseline (patients with MF [2]; phase 2, Week 24): -23.7%
- Red blood cells, Median % change from baseline (patients with MF [2]; phase 2, Week 24): 2.46%
- Hematocrit, Median % change from baseline (patients with MF [2]; phase 2, Week 36): -2.91%
- Hemoglobin, Median % change from baseline (patients with MF [2]; phase 2, Week 36): -0.4%
- Leukocytes, Median % change from baseline (patients with MF [2]; phase 2, Week 36): -18.32%
- Lymphocytes, Median % change from baseline (patients with MF [2]; phase 2, Week 36): 58.89%
- Neutrophils, Median % change from baseline (patients with MF [2]; phase 2, Week 36): -33.96%
- Platelets, Median % change from baseline (patients with MF [2]; phase 2, Week 36): -23.4%
- Red blood cells, Median % change from baseline (patients with MF [2]; phase 2, Week 36): -3.15%
- Hematocrit, Median % change from baseline (patients with MF [2]; phase 2, Week 48): -2.39%
- Hemoglobin, Median % change from baseline (patients with MF [2]; phase 2, Week 48): 10.1%
- Leukocytes, Median % change from baseline (patients with MF [2]; phase 2, Week 48): -5.13%
- Lymphocytes, Median % change from baseline (patients with MF [2]; phase 2, Week 48): 61.70%
- Neutrophils, Median % change from baseline (patients with MF [2]; phase 2, Week 48): -28.84%
- Platelets, Median % change from baseline (patients with MF [2]; phase 2, Week 48): -16.3%
- Red blood cells, Median % change from baseline (patients with MF [2]; phase 2, Week 48): -3.87%
- Hematocrit, Median % change from baseline (patients with MF [2]; phase 2, Week 60): 3.70%
- Hemoglobin, Median % change from baseline (patients with MF [2]; phase 2, Week 60): 4.7%
- Leukocytes, Median % change from baseline (patients with MF [2]; phase 2, Week 60): -28.21%
- Lymphocytes, Median % change from baseline (patients with MF [2]; phase 2, Week 60): 40.43%
- Neutrophils, Median % change from baseline (patients with MF [2]; phase 2, Week 60): -40.17%
- Platelets, Median % change from baseline (patients with MF [2]; phase 2, Week 60): -31.3%
- Red blood cells, Median % change from baseline (patients with MF [2]; phase 2, Week 60): 1.48%
- Patients who received RBC transfusions (patients with MF [2]; [3]): 51.6%
- Patients who received platelet transfusions (patients with MF [2]; [3]): 9.7%
- Platelet transfusions, median (patients with MF [2]; phase 2, three transfused patients): 3 units
- Median neutrophil count, span over visits (patients with MF [2]; phase 2, through week 60): 3.83 to 6.00 × 10^9/L
- Median platelet count, span over visits (patients with MF [2]; phase 2, through week 60): 89 to 155 × 10^9/L
- Patients with hemoglobin levels <8 g/L (patients with MF [2]; phase 2, week 24 (1/20)): 5.0%
- Patients with leukocyte counts >25 × 10^9/L (patients with MF [2]; phase 2, week 24 (2/20)): 10.0%
- Patients with platelet counts <50 × 10^9/L (patients with MF [2]; phase 2, week 24 (2/20)): 10.0%
- Patients with hemoglobin levels <10 g/L (patients with MF [2]; phase 2, week 24 (10/20)): 50.0%
- Patients with platelet counts <100 × 10^9/L (patients with MF [2]; phase 2, week 24 (10/20)): 50.0%
